# Results: patent US20090110673A1, “METHODS OF REDUCING CELL DEATH FOLLOWING HYPOXIA / REOXYGENATION” (THE UNIVERSITY OF CHICAGO, priority 2006, published 2009)
# Several values for one entry are separate records, joined by “and”; a condition that tells them apart may be missing. Equal values may be shown once. Entries after “also recorded” stand apart in the source; their conditions may differ.
# Key:
# [1] = tested on: reactive oxygen species (ROS) in embryonic chick cardiomyocytes; assay: Intracellular ROS (DCF fluorescence) at reperfusion after simulated ischemia; type: cell-based; conditions: for maximal DCF fluorescence intensity: control 2.8±0.2 a.u.
# Protocol: (§1) Ventricular embryonic chick cardiomyocytes were prepared according to published procedure. (Vanden Hoek T L, Becker L B, Shao Z, et al. Reactive oxygen species released from mitochondria during brief hypoxia induce preconditioning in cardiomyocytes, J. Biol. Chem. […]; 273:18092-18098, which is incorporated herein by reference). 10-day old chicken embryo hearts were removed, ventricular tissue minced into 0.5 mm fragments, enzymatically dispersed with 0.025% trypsin (Life Technologies, New York, N.Y.), centrifuged, 0.7×10^6 cells were pipetted onto 25 mm coverslips, and incubated with 5% CO2. Coverslips were checked for non-muscle cell contamination. Experiments were performed with 3-5 day cardiac cell cultures, by which time a synchronously contracting layer of cells could be visualized and viability exceeded 95%.
# (§2) Coverslips with contracting cells were placed in a 1.2 mL Sykes-Moore perfusion chamber (Bellco Glass Inc., Vineland, N.J.). The chamber and inflow tubing were maintained at 37° C. Perfusate was supplied to the chamber (0.25 ml/min) via stainless steel tubing to minimize diffusive entry of ambient O2.
# (§3) Normoxic perfusate used for baseline conditions and for reperfusion subsequent to ischemia contained oxygenated balanced salt solution (BSS) with a PO2 OF 149 torr, PCO2 of 40 torr, pH of 7.4, and [K]^+ of 4.0 mEq/L, and glucose (5.6 mM). To simulate ischemia, the perfusate contained BSS with 2-deoxyglucose (2-DOG) (20 mM) rather than glucose and [K]^+ of 8.0 mEq/L. The ischemic perfusate was equilibrated with 80% N2 and 20% CO2 prior to use to produce a PO2 of ˜5 torr, a PCO2 of 144 torr and a final pH of 6.8.
# Intracellular oxidant stress due to ROS was monitored real time with the intracellular probe 2′,7′-dichlorofluorescin diacetate (DCFH-DA, 5 μM, Molecular Probes, Eugene, Oreg.) as described in published literature (Vanden Hoek, F L, et al., Reactive oxygen species released from mitochondria during brief hypoxia induce preconditioning in cardiomyocytes, J. Biol. Chem. […]; 273:18092-18098, which is incorporated by reference herein; Vanden Hoek, T L, et al, Preconditioning in cardiomyocytes protects by attenuating oxidant stress at reperfusion, Circ Res 2000; 86:534-540, which is incorporated by reference herein; Vanden Hoek, T L, Reperfusion, not simulated ischemia initiates intrinsic apoptosis injury in chick cardiomyocytes Am J. Physiol Heart Physiol 2003; 284:H141-150, which is incorporated by reference herein). DCFH-DA is cleaved by cellular esterases upon entry into the cells, trapping the nonfluorescent 2′,7′-dichlorofluorescin (DCFH) inside. ROS, particularly hydrogen peroxide (H2O2) and hydroxyl radical generate the fluorescent product dichlorofluorescein (DCF) by causing the oxidation of DCFH. Increases in DCF fluorescence result from DCFH oxidation to DCF. DCF fluorescence was measured at an excitation wavelength of 480 nm, and a 520 nm band pass emission filter. Attention was focused on the maximal DCF fluorescence intensity value during the first minutes of reperfusion for comparison. All measurements were expressed in arbitrary units (a.u.) of fluorescence.
# (§4) For each experiment a field of about 500 cells was observed. Treatment and control groups were matched in sets containing cells isolated and cultured on the same day so as to eliminate variability due to cell batch. Additional 25 mm coverslips were used for replicate experiments (“n”). Results are reported as means plus or minus S.E.M. and two-tailed unpaired t-tests comparing similar time points throughout ischemia and reperfusion were used as tests of significance, with p<0.05 considered to be significant.
# [2] = tested on: Ventricular embryonic chick cardiomyocytes; assay: Cell death (propidium iodide viability assay) after simulated ischemia/reperfusion; type: cell-based
# Protocol: Ventricular embryonic chick cardiomyocytes were prepared according to published procedure. […] Coverslips were checked for non-muscle cell contamination.
# as §2
# Cell viability was assessed with the fluorochrome propidium iodide (PI) (5 μM, Molecular Probes, Eugene, Oreg.). PI is excluded from viable cells, but enters cells and binds to chromatin after loss of cell membrane integrity. The cells then become highly fluorescent (excitation wavelength of 540 nm and a 590 nm band pass emission filter). PI was used to quantify cell death throughout the entire time of each experiment. […] All cells in the field studied were stained with PI at the end of the experiment by permeabilizing the cells with digitonin (300 μM). Percent cell death was then calculated as the PI fluorescence at any given time point relative to the maximal fluorescence value seen after digitonin exposure.
# as §4
# [3] = tested on: Ventricular embryonic chick cardiomyocytes; assay: Return of synchronous cell contraction after simulated ischemia/reperfusion; type: cell-based; conditions: for return of contractions (groups with return/total): no return in control cells
# Protocol: as §1, §3
# Contractions were assessed by monitoring synchronous movement within the same field of cells as previously reported. A return of contraction following simulated ischemia/reperfusion was indicated when contractions could be seen throughout the field of cells following the three hour period of reperfusion.
# [4] = tested on: mitochondrial respiration; assay: Decrease of mitochondrial respiration; conditions: dose administered to achieve protection
# [5] = tested on: nitric oxide (NO) generation in embryonic chick cardiomyocytes; assay: NO generation (DAF-2 fluorescence) during ischemia/reperfusion; type: cell-based; conditions: L-NAME 200 μM during I/R, n=8
# Protocol: as §1, with “al:” for “al.”, “0.25%” for “0.025%”, “95%. […]” for “95%.”
# Endogenous NO generation has been implicated to have both protective and detrimental roles in various in vitro and in vivo models of I/R injury. To test whether endogenous NO was affected by hypocarbic or hypercarbic reperfusion, we continuously monitored the entire course of I/R using the NO indicator DAF-2 DA of cells treated as described in Example 2.
# Cells were treated as described in Example 11, and the NO profile and cell viability was assessed in hypercarbic reperfusion compared with hypercarbic reperfusion with 200 μM L-NAME incubated during I/R as described above.
# [6] = tested on: reactive oxygen species (ROS) in embryonic chick cardiomyocytes; assay: ROS (DCF fluorescence) during hypocarbic/normocarbic/hypercarbic reperfusion; type: cell-based; conditions: apocynin 300 μM during reperfusion
# Protocol: as §1, with “al:” for “al.”, “0.25%” for “0.025%”
# To simulate ischemia, the perfusate contained BSS with 2-deoxyglucose (2-DOG) (20 mM) rather than glucose, 18 mM NaCO3 and [K]^+ of 8.0 mEq/L, and was equilibrated with 80% N2 and 20% CO2 to produce a final PO2 of 3-5 torr, PCO2 of 144 torr, and pH 6.8. In addition, 20 mM of glycolytic inhibition 2-deoxyglucose was added to better model adenosine triphosphate depletion.
# For perfusion, three perfusate solutions were used: normocarbic reperfusion perfusate, hypocarbic reperfusion perfusate and hypercarbic reperfusion perfusate. […]
# [7] = 20 μM NADH isomer at reperfusion
smiles,measurement,setting,value
O=C(O)c1ccc2cc3ccccc3cc2c1 [2-anthracene-carboxylic acid],maximal DCF fluorescence intensity,"[1]; 0.1 μM, first 10 minutes of reperfusion, n=3",1.7±0.1 a.u.
same,I/R induced cell death,"[2]; 0.1 μM, first 10 minutes of reperfusion, control 47.1±3.0%, n=5",26.1±4.0%
same,cell death,"[2]; 1 μM as printed in Example 4, first 10 minutes of reperfusion, control 47.1±3.0%, n=5",26.1±4.0%
same,return of synchronous contractions (groups with return/total),"[3]; 0.1 μM, first 10 minutes of reperfusion, control 0/7",5/5
same,decrease of mitochondrial respiration,[4],10-15%
"CCN(CC)C(=S)S [DDC, diethyldithiocarbamic acid]",maximal DCF fluorescence intensity,"[1]; DDC 1 mM during simulated ischemia and first 15-30 min of reperfusion, n=5",1.6±0.1 a.u.
same,I/R induced cell death,"[2]; DDC 1 mM during reperfusion, control 49.7±6.7%, n=5",15.7±4.7%
"COC(=O)[C@@H](N)CCCNC(=N)N[N+](=O)[O-] [L-NAME, N^G-nitro-L-arginine methyl ester]",NO generation (DAF-2 fluorescence) during hypercarbic reperfusion,[5],blocked maintenance of the sustained NO levels; also recorded: reduction of the sustained increase of NO generation
COc1cc(C(C)=O)ccc1O [apocynin],ROS burst (DCF fluorescence) in hypocarbic reperfusion,[6]; hypocarbic,did not attenuate the reperfusion ROS burst; also recorded: increased the ROS burst
same,ROS burst (DCF fluorescence) in normocarbic reperfusion,[6]; normocarbic,did not attenuate the reperfusion ROS burst; also recorded: increased the ROS burst
C=C(C)[C@H]1Cc2c(ccc3c2O[C@@H]2COc4cc(OC)c(OC)cc4[C@@H]2C3=O)O1 [rotenone],maximal peak DCF fluorescence intensity (reperfusion ROS),"[1]; rotenone 5 μM (representative of all doses), control 2.4±0.3 a.u., n=5",0.7±0.1 a.u.
same,protection against I/R injury (cell protection),"[2]; all tested doses of rotenone, including nanomolar doses for first 15 minutes of reperfusion",no tested dose of rotenone conferred cell protection
same,cell death,"[2]; rotenone 100 nM, first 15 minutes of reperfusion, control 50.2±3.0%, n=3",61.3±1.6%
same,cell death,"[2]; rotenone 1 μM, first 15 minutes of reperfusion, control 50.2±3.0%, n=3",77.4±6.6% and 77.1±6.6%
same,cell death,"[2]; rotenone 10 μM, first 15 minutes of reperfusion, control 50.2±3.0%, n=3",66.1±3.4% and 66.2±3.4%
C/C=C(C)/C=C/C=C/[C@H](OC)[C@@H](C)[C@@H](OC)[C@@H](C)CCc1oc2c(O)c(OC)cc(OC)c2c(=O)c1C [stigmatellin],reperfusion ROS,"[1]; stigmatellin 100 μM, first 15 min of reperfusion",ROS was abrogated
same,maximal peak DCF fluorescence intensity,"[1]; stigmatellin 2-20 nM, first 15 min of reperfusion, control 2.4±0.3 a.u., n=5",0.46±0.02 a.u.
same,reperfusion ROS,[1]; stigmatellin given during the whole 3 hour course of reperfusion,ROS was attenuated
same,cell death,"[2]; stigmatellin 20 nM, first 15 minutes of reperfusion, control 50.2±3.0%, n=3",20.3±5.0%
same,cell death,"[2]; stigmatellin 100 μM, 3 hours of reperfusion, control 50.2±3.0%, n=3",80.1±6.0%
same,cell death,"[2]; stigmatellin 100 μM, first 15 minutes of reperfusion, control 50.2±3.0%, n=3",52.3±3.0%
same,I/R cell death,"[2]; stigmatellin 2-20 nM, first 15 min of reperfusion, control 53.8±3.5%, n=5",10.8±2.9%
same,return of contractions (groups with return/total),"[3]; stigmatellin 2-20 nM, first 15 minutes of reperfusion",5/5
NC(=O)C1=CN([C@H]2O[C@H](COP(=O)(O)OP(=O)(O)OC[C@H]3O[C@@H](n4cnc5c(N)ncnc54)[C@H](O)[C@@H]3O)[C@@H](O)[C@H]2O)C=CC1 [α-NADH],effect on β-NADH induced increase in ROS,[1]; α-NADH 20 μM co-treated with β-NADH 20 μM,blocked this increase in ROS; also recorded: reversal of the increase was observed
same,I/R cell death,"[2]; exogenous α-NADH 20 μM, control 47.1±3.0%, n=5",13.8±1.3%
same,return of contractions (groups with return/total),[3]; [7],5/5
NC(=O)C1=CN([C@@H]2O[C@H](COP(=O)(O)OP(=O)(O)OC[C@H]3O[C@@H](n4cnc5c(N)ncnc54)[C@H](O)[C@@H]3O)[C@@H](O)[C@H]2O)C=CC1 [β-NADH],percent increase in ROS generation during reperfusion over ischemia,"[1]; exogenous β-NADH 20 μM, first 10 minutes of reperfusion, control 86.2±19.6%, n=8",511±123%
same,I/R cell death versus control,"[2]; exogenous β-NADH 20 μM, first 10 minutes of reperfusion",showed no benefit
same,return of contractions (groups with return/total),[3]; [7],absence of contractile return
